US20190223483A1, “SENSORY MODIFIER COMPOUNDS” (CARGILL, INCORPORATED, priority 2017, published 2019)
“And” between values parts separate entries of the source, which are not always exact repeats. Identical values can stand only once.

Experiments:
[1] = Sweetness intensity (SEV) by trained panel against 1%-14% sucrose standards; assay type: in vivo; conditions: for sweetness intensity plateau (SEV): Reb M alone, at about 800 ppm; for sweetness intensity (SEV): about 1400 ppm Reb M with about 1400 ppm sensory modifier
Protocol: In some aspects, the amount of sensory modifier compound effective to increase sweetness intensity can be determined by panel testing with trained panelists. For example, […] can be determined by the following test: Solutions were prepared by dissolving steviol glycosides and sensory modifier compounds into reverse osmosis water at the indicated concentrations and/or ratios. Solutions were tested by a panel of at least four individuals that are highly-trained in tasting steviol glycoside solutions. The highly-trained panelists were trained against a standard range of 1%, 2%, 3%, 4%, 5%, 6%, 7%, 8%, 9%, 10%, 11%, 12%, 13%, and 14% sucrose solutions corresponding to 1, 2, 3, 4, 5, 6, 7, 8, 9, 10, 11, 12, 13, and 14 SEV. To test each solution, the highly-trained panelists dispensed approximately 2 mL of each solution into their own mouths by transfer pipet, dispersed the solution by moving their tongues, and recorded an SEV value for each solution based on comparison to the 1%, 2%, 3%, 4%, 5%, 6%, 7%, 8%, 9%, 10%, 11%, 12%, 13%, and 14% sucrose solutions. Between tasting solutions, the panelists were able to cleanse their palates with water. […] For sweetness intensity, the panelists focused on, and only recorded, the sweetness intensity in SEV that they tasted while disregarding other attributes of the solution. At the highest concentrations of steviol glycoside and sensory modifier compound, the panelists found other attributes to be highly noticeable, but recorded the isolated sweetness intensity for each solution despite these other attributes. Exemplary tests are described below in Example 1.
All solutions were prepared by dissolving steviol glycosides and sensory modifier compounds into reverse osmosis water at the indicated concentrations and/or ratios.
For sweetness intensity, the solutions were tested by a panel of at least four individuals that are highly-trained in tasting steviol glycoside solutions. The highly-trained panelists were trained against a standard range of 1%, 2%, 3%, 4%, 5%, 6%, 7%, 8%, 9%, 10%, 11%, 12%, 13%, and 14% sucrose solutions corresponding to 1, 2, 3, 4, 5, 6, 7, 8, 9, 10, 11, 12, 13, and 14 SEV. To test each solution, the highly-trained panelists dispensed approximately 2 mL of each solution into their own mouths by transfer pipet, dispersed the solution by moving their tongues, and recorded an SEV value for each solution based on comparison to the 1%, 2%, 3%, 4%, 5%, 6%, 7%, 8%, 9%, 10%, 11%, 12%, 13%, and 14% sucrose solutions. Between tasting solutions, the panelists were able to cleanse their palates with water. […] For this example, the panelists focused on and only recorded the sweetness intensity in SEV that they tasted while disregarding other attributes of the solution. At the highest concentrations of steviol glycoside and sensory modifier compound, the panelists found other attributes to be highly noticeable, but recorded the isolated sweetness intensity for each solution despite these other attributes.

[2] = Roundtable assessment of sweetness linger (scale 0 to 6); assay type: in vivo; set-up: key: 0 = none; 1 = trace/faint; 2 = slight; 3 = moderate; 4 = definite; 5 = strong; 6 = extreme
Protocol: In some aspects, the amount of sensory modifier compound effective to […] can be determined by panel testing with trained panelists. For example, sweetness linger can be determined by the following test: For other sweetness attributes, the solutions were tested by a panel of at least four individuals that are highly-trained in tasting steviol glycoside solutions. The highly-trained panelists used a roundtable methodology to assess each sweetness attribute. To test each solution, the highly-trained panelists dispensed approximately 2 mL of each solution into their own mouths by transfer pipet, dispersed the solution by moving their tongues, and recorded a value for the particular sweetness attribute being tested. Between tasting solutions, the panelists were able to cleanse their palates with water. For each sweetness attribute, the panelist agreed on a descriptive scale with relative intensities assigned for each sweetness attribute and then recorded the values for each sweetness attribute against this. For example, this roundtable assessment of sweetness linger assigned a scale of 0 to 6 with a score of 0 indicating no sweetness linger and a score of 6 indicating extreme sweetness linger. Roundtable assessment of sweetness linger assigned a scale of 0 to 6 with a score of 0 indicating no sweetness linger and a score of 6 indicating extreme sweetness linger (0=none, 1=trace, 2=slight, 3=moderate, 4=definite, 5=strong, 6=extreme). Roundtable assessment of rounded assigned a scale of 0 to 3 with a score of 0 indicating spikey and a score of 3 indicating desirable rounded (0=none, 1=mostly spikey, some rounded, 2=mostly rounded, some spikey, 3=rounded). Roundtable assessment of mouthfeel assigned a scale of 0 to 2 with a score of 0 indicating water and a score of 2 indicating syrupy (0=water, 1=sucrosey, 2=syrupy). Roundtable assessment of bitterness assigned a scale of 0 to 6 with a score of 0 indicating no bitterness and a score of 6 indicating extreme sweetness linger (0=none, 1=trace, 2=slight, 3=moderate, 4=definite, 5=strong, 6=extreme). Roundtable assessment of off tastes assigned a scale of 0 to 6 with a score of 0 indicating no bitterness and a score of 6 indicating extreme off tastes (0=none, 1=trace, 2=slight, 3=moderate, 4=definite, 5=strong, 6=extreme). […] Roundtable assessment of botanical notes assigned a scale of 0 to 5 with a score of 0 indicating no botanical notes and a score of 5 indicating strong (0=none, 1=trace, 2=slight, 3=moderate, 4=definite, 5=strong). Exemplary tests are recorded below in Example 1.
For other sweetness attributes, the solutions were tested by a panel of at least four individuals that are highly-trained in tasting steviol glycoside solutions. The highly-trained panelists used a roundtable methodology to assess each sweetness attribute. To test each solution, the highly-trained panelists dispensed approximately 2 mL of each solution into their own mouths by transfer pipet, dispersed the solution by moving their tongues, and recorded a value for the particular sweetness attribute being tested. Between tasting solutions, the panelists were able to cleanse their palates with water. For each sweetness attribute, the panelist agreed on a descriptive scale with relative intensities assigned for each sweetness attribute and then recorded the values for each sweetness attribute against this. For example, this roundtable assessment of sweetness linger assigned a scale of 0 to 6 with a score of 0 indicating no sweetness linger and a score of 6 indicating extreme sweetness linger. Roundtable assessment of sweetness linger assigned a scale of 0 to 6 with a score of 0 indicating no sweetness linger and a score of 6 indicating extreme sweetness linger (0=none, 1=trace, 2=slight, 3=moderate, 4=definite, 5=strong, 6=extreme). […]

[3] = RebM 700 ppm + cichoric acid (tartaric backbone) 514 ppm
[4] = RebM 700 ppm + cichoric acid (tartaric backbone) 772 ppm
[5] = RebM 700 ppm + cichoric acid (tartaric backbone) […]
[6] = RebM 700 ppm + rosmarinic acid 195 ppm
[7] = RebM 700 ppm + rosmarinic acid 391 ppm
[8] = RebM 700 ppm + rosmarinic acid 586 ppm
[9] = steviol glycoside 700 ppm + yerba mate mono/dicaffeoylquinic acids 236 ppm
[10] = steviol glycoside 700 ppm + yerba mate mono/dicaffeoylquinic acids 300 ppm
[11] = steviol glycoside 700 ppm + yerba mate mono/dicaffeoylquinic acids 400 ppm
[12] = steviol glycoside 700 ppm + yerba mate mono/dicaffeoylquinic acids 472 ppm
[13] = steviol glycoside 700 ppm + yerba mate mono/dicaffeoylquinic acids 500 ppm
[14] = steviol glycoside 700 ppm + yerba mate mono/dicaffeoylquinic acids 600 ppm
[15] = steviol glycoside 700 ppm + yerba mate mono/dicaffeoylquinic acids 700 ppm
[16] = steviol glycoside 700 ppm + yerba mate mono/dicaffeoylquinic acids 708 ppm
[17] = steviol glycoside 700 ppm + yerba mate mono/dicaffeoylquinic acids 800 ppm
[18] = steviol glycoside 700 ppm, sensory modifier 0 ppm

## C=C1C[C@@]23CC[C@H]4[C@@](C)(CCC[C@@]4(C)C(=O)O[C@@H]4O[C@H](CO)[C@@H](O)[C@H](O[C@@H]5O[C@H](CO)[C@@H](O)[C@H](O)[C@H]5O)[C@H]4O[C@@H]4O[C@H](CO)[C@@H](O)[C@H](O)[C@H]4O)[C@@H]2CC[C@]1(O[C@@H]1O[C@H](CO)[C@@H](O)[C@H](O[C@@H]2O[C@H](CO)[C@@H](O)[C@H](O)[C@H]2O)[C@H]1O[C@@H]1O[C@H](CO)[C@@H](O)[C@H](O)[C@H]1O)C3 [RebM, Rebaudioside M]
[1]; listed as Reb M
  sweetness intensity plateau (SEV): about 11
  sweetness intensity (SEV): about 13
[1]; listed as rebaudioside M
  sweetness intensity plateau (SEV): ~11
  sweetness intensity (SEV): ~13
[1]; RebM 100 ppm + yerba mate mono/dicaffeoylquinic acids 100 ppm (1:1)
  SEV: 3.5
[1]; RebM 100 ppm, no sensory modifier
  SEV: 3.25
[1]; RebM 200 ppm + yerba mate mono/dicaffeoylquinic acids 200 ppm (1:1)
  SEV: 6
[1]; RebM 200 ppm, no sensory modifier
  SEV: 4.5
[1]; RebM 300 ppm + yerba mate mono/dicaffeoylquinic acids 300 ppm (1:1)
  SEV: 7.5
[1]; RebM 300 ppm, no sensory modifier
  SEV: 5.75
[1]; RebM 400 ppm + yerba mate mono/dicaffeoylquinic acids 400 ppm (1:1)
  SEV: 8.5
[1]; RebM 400 ppm, no sensory modifier
  SEV: 7.75
[1]; RebM 500 ppm + yerba mate mono/dicaffeoylquinic acids 500 ppm (1:1)
  SEV: 9.25
[1]; RebM 500 ppm, no sensory modifier
  SEV: 9
[1]; RebM 600 ppm + yerba mate mono/dicaffeoylquinic acids 600 ppm (1:1)
  SEV: 10
[1]; RebM 600 ppm, no sensory modifier
  SEV: 9.5
[1]; [3]
  SEV: 10
[1]; [4]
  SEV: 9
[1]; [5]
  SEV: 10
[1]; [6]
  SEV: 10.5
[1]; [7]
  SEV: 10.25
[1]; [8]
  SEV: 10.25
[1]; RebM 700 ppm + yerba mate mono/dicaffeoylquinic acids 700 ppm (1:1)
  SEV: 10.5
[1]; RebM 700 ppm, no sensory modifier
  SEV: 10.5
[1]; RebM 800 ppm + yerba mate mono/dicaffeoylquinic acids 800 ppm (1:1)
  SEV: 10.5
[1]; RebM 800 ppm, no sensory modifier
  SEV: 10.75
[1]; RebM 900 ppm + yerba mate mono/dicaffeoylquinic acids 900 ppm (1:1)
  SEV: 11
[1]; RebM 900 ppm, no sensory modifier
  SEV: 11
[1]; RebM 1000 ppm + yerba mate mono/dicaffeoylquinic acids 1000 ppm (1:1)
  SEV: 11.5
[1]; RebM 1000 ppm, no sensory modifier
  SEV: 11
[1]; RebM 1100 ppm + yerba mate mono/dicaffeoylquinic acids 1100 ppm (1:1)
  SEV: 12
[1]; RebM 1100 ppm, no sensory modifier
  SEV: 11
[1]; RebM 1200 ppm + yerba mate mono/dicaffeoylquinic acids 1200 ppm (1:1)
  SEV: 12.25
[1]; RebM 1200 ppm, no sensory modifier
  SEV: 11
[1]; RebM 1300 ppm + yerba mate mono/dicaffeoylquinic acids 1300 ppm (1:1)
  SEV: 12.5
[1]; RebM 1400 ppm + yerba mate mono/dicaffeoylquinic acids 1400 ppm (1:1)
  SEV: 13
[1]; RebM 1500 ppm + yerba mate mono/dicaffeoylquinic acids 1500 ppm (1:1)
  SEV: 13
[1]; RebM 1600 ppm + yerba mate mono/dicaffeoylquinic acids 1600 ppm (1:1)
  SEV: 13
[1]; [9]
  SEV: 10 and 10.5
[1]; [10]
  SEV: 10.25
[1]; [11]
  SEV: 10.25
[1]; [12]
  SEV: 10
[1]; [13]
  SEV: 10.00
[1]; [14]
  SEV: 10.5
[1]; [15]
  SEV: 10.5 and 10
[1]; [16]
  SEV: 10
[1]; [17]
  SEV: 10.5
[1]; [18]
  SEV: 10.5
[2]; 1:1 molar ratio with tartaric acid backbone modifier
  Sweetness linger: no perceptible linger
[2]; 1:2 molar ratio with quinic acid backbone modifier
  Sweetness linger: no perceptible linger
[2]; [3]
  Sweetness linger: 0
[2]; [4]
  Sweetness linger: 0
[2]; [5]
  Sweetness linger: 0
[2]; [6]
  Sweetness linger: 6
[2]; [7]
  Sweetness linger: 3
[2]; [8]
  Sweetness linger: 2
[2]; RebM 700 ppm, above about 300 ppm quinic backbone modifier
  Sweetness linger: not perceptible
[2]; RebM 700 ppm, at or before about 200 ppm quinic backbone modifier
  Sweetness linger: slight
[2]; [9]
  Sweetness linger: 2
[2]; [10]
  Sweetness linger: 2
[2]; [11]
  Sweetness linger: 0
[2]; [12]
  Sweetness linger: 0
[2]; [13]
  Sweetness linger: 0
[2]; [14]
  Sweetness linger: 0
[2]; [15]
  Sweetness linger: 0 and 2
[2]; [16]
  Sweetness linger: 0
[2]; [17]
  Sweetness linger: 0
[2]; [18]
  Sweetness linger: 6
